According to patent US12209102B2, “Heterocyclic compounds and uses thereof” (Kumquat Biosciences Inc., priority 2022, dated 2025):

Key:
K-Ras G12S = target: T1, K-Ras G12S (Homo sapiens, UniProt P01116, G12S); assay: HTRF resonance energy transfer assay, K-Ras G12S / SOS1 interaction; type: biochemical; conditions: HTRF assay of Example 5; read-out: IC50 against K-Ras G12S
T1 construct: made in house; host or cells: E. coli BL21 (DE3)
In short: (§1)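 GST-tagged K-Ras (WT or mutant) bound to anti-GST-Eu donor was mixed with His-hSOS1 bound to anti-6His-XL665 acceptor in ~5 mM HEPES pH 7.4, 150 mM NaCl, 1 mM DTT, 0.05% BSA, 0.0025% Igepal. HTRF (ex 337, em 620/665 nm) was read after ~10 min or longer. IC50 came from the 665/620 ratio over duplicates from 10 μM to 0.01 μM.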

SW620 cells = assay: Ras cellular assay, growth of cells with K-Ras G12V mutation (CellTiter-Glo); type: cell-based; conditions: Homo sapiens, SW-620; cell growth, Example 9, G12V mutation; read-out: IC50 against SW620 cells
In short: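 SW620 (K-Ras G12V) cells, e.g. 800/well in RPMI-1640 with 10% heat-inactivated FBS on standard or ultra-low attachment plates, were dosed the day after plating with e.g. a 10-point 3-fold series. Viability by CellTiter-Glo luminescence about 6 days later; IC50 from four-parameter fit.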

K-Ras G12D = target: T2, K-Ras G12D (Homo sapiens, UniProt P01116, G12D); assay: HTRF resonance energy transfer assay, K-Ras G12D / SOS1 interaction; type: biochemical; conditions: HTRF assay of Example 5; read-out: IC50 against K-Ras G12D
T2 construct: made in house; host or cells: E. coli BL21 (DE3)
In short: as §1

K-Ras G12V = target: T3, K-Ras G12V (Homo sapiens, UniProt P01116, G12V); assay: HTRF resonance energy transfer assay, K-Ras G12V / SOS1 interaction; type: biochemical; conditions: HTRF assay of Example 5; read-out: IC50 against K-Ras G12V
T3 construct: made in house; host or cells: E. coli BL21 (DE3)
In short: as §1

K-Ras WT = target: T4, K-Ras WT (Homo sapiens, UniProt P01116); assay: HTRF resonance energy transfer assay, K-Ras WT / SOS1 interaction; type: biochemical; conditions: HTRF assay of Example 5; read-out: IC50 against K-Ras WT
T4 construct: made in house; host or cells: E. coli BL21 (DE3)
In short: as §1

GP2D cells = assay: Ras cellular assay, growth of cells with K-Ras G12D mutation (CellTiter-Glo); type: cell-based; conditions: cell growth, Example 9, G12D mutation, read-out: IC50 against GP2D cells
A549 cells = assay: Ras cellular assay, growth of cells with K-Ras G12S mutation (CellTiter-Glo); type: cell-based; conditions: Homo sapiens, cell growth, Example 9, G12S mutation, read-out: IC50 against A549 cells
In short: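 A549 cells (K-Ras G12S) in RPMI-1640 with 10% heat-inactivated FBS, seeded e.g. 800 per well in standard or ultra-low-attachment 384-well plates, treated next day with a dilution series (e.g. 10-point, 3-fold). Viability by CellTiter-Glo luminescence about 6 days later; IC50 from four-parameter fit.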

T4 sequence (P01116 1-188 isoform P01116-2): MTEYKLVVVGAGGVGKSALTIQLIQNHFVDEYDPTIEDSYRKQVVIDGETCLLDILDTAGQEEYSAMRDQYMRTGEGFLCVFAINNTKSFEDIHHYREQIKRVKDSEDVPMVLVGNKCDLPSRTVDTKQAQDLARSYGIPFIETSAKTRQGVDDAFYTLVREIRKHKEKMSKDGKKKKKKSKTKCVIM
T3 sequence (P01116 1-188 isoform P01116-2 G12V): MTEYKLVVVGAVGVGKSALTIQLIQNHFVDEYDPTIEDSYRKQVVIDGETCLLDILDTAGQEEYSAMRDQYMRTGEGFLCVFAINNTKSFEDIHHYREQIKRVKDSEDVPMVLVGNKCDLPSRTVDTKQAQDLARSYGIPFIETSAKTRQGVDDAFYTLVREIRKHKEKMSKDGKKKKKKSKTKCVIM
T1 sequence (P01116 1-188 isoform P01116-2 G12S): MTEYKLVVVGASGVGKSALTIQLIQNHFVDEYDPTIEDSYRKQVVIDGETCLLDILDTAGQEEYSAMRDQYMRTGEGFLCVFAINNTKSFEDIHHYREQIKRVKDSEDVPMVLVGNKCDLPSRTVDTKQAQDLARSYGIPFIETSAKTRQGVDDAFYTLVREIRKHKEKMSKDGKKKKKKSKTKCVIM
T2 sequence (P01116 1-188 isoform P01116-2 G12D): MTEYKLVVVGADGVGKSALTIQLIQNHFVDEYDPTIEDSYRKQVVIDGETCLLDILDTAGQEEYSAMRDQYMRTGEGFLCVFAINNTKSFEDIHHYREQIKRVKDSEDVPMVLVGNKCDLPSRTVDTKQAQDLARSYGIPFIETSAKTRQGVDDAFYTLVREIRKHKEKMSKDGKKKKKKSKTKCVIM

| IC50 (K-Ras G12S) [nM] | IC50 (SW620 cells) [nM] | IC50 (K-Ras G12D) [nM] | IC50 (K-Ras G12V) [nM] | IC50 (K-Ras WT) [nM] | IC50 (A549 cells) [nM] | Compound | IC50 (GP2D cells) [nM] |
| --- | --- | --- | --- | --- | --- | --- | --- |
| < 100 | < 5000 | < 100 | < 100 | < 100 | < 5000 | N#Cc1c(N)sc2c(F)ccc(-c3c(Cl)c4c5c(nc(OC[C@@]67CCCN6C[C@H](F)C7)nc5c3F)N(C3CCNC3)CCO4)c12 (stereo partly drawn) [Compound 969, 2-amino-4-(8-chloro-10-fluoro-2-(((2R,7aS)-2-fluorotetrahydro-1H-pyrrolizin-7a(5H)-yl)methoxy)-4-(pyrrolidin-3-yl)-5,6-dihydro-4H-[1,4]oxazepino[5,6,7-de]quinazolin-9-yl)-7-fluorobenzo[b]thiophene-3-carbonitrile] | < 500 |
| < 100 | < 5000 | < 100 | < 100 | < 100 | < 5000 | CC(C1CC1C#N)N1CCOc2c(Cl)c(-c3ccc(F)c4sc(N)c(C#N)c34)c(F)c3nc(OC[C@@]45CCCN4C[C@H](F)C5)nc1c23 (stereo partly drawn) [Compound 923, 2-amino-4-(8-chloro-4-(1-(2-cyanocyclopropyl)ethyl)-10-fluoro-2-(((2R,7aS)-2-fluorotetrahydro-1H-pyrrolizin-7a(5H)-yl)methoxy)-5,6-dihydro-4H-[1,4]oxazepino[5,6,7-de]quinazolin-9-yl)-7-fluorobenzo[b]thiophene-3-carbonitrile] | < 500 |
| < 100 | < 5000 | < 100 | < 100 | < 100 | < 5000 | N#Cc1c(N)sc2c(F)ccc(-c3c(Cl)c4c5c(nc(OC[C@@]67CCCN6C[C@H](F)C7)nc5c3F)N(C3CCN(C(=O)C5CCO5)C3)CCO4)c12 (stereo partly drawn) [Compound 1064, 2-amino-4-(8-chloro-10-fluoro-2-(((2R,7aS)-2-fluorotetrahydro-1H-pyrrolizin-7a(5H)-yl)methoxy)-4-(1-(oxetane-2-carbonyl)pyrrolidin-3-yl)-5,6-dihydro-4H-[1,4]oxazepino[5,6,7-de]quinazolin-9-yl)-7-fluorobenzo[b]thiophene-3-carbonitrile] | < 500 |
| < 100 | < 5000 | < 100 | < 100 | < 100 | < 5000 | C[C@@H](O)[C@H]1COc2c(Cl)c(-c3ccc(F)c4sc(N)c(C#N)c34)c(F)c3nc(OC[C@@]45CCCN4C[C@H](F)C5)nc(c23)N1CCC(F)F (single isomer, unassigned) [Compound 820] | < 500 |
| < 100 | < 5000 | < 100 | < 100 | < 100 | < 5000 | N#Cc1c(N)sc2c(F)ccc(-c3c(Cl)c4c5c(nc(OC[C@@]67CCCN6C[C@H](F)C7)nc5c3F)N(C3CCN(C(=O)C5C6COCC65)C3)CCO4)c12 (stereo partly drawn) [Compound 916, 4-(4-(1-(3-oxabicyclo[3.1.0]hexane-6-carbonyl)pyrrolidin-3-yl)-8-chloro-10-fluoro-2-(((2R,7aS)-2-fluorotetrahydro-1H-pyrrolizin-7a(5H)-yl)methoxy)-5,6-dihydro-4H-[1,4]oxazepino[5,6,7-de]quinazolin-9-yl)-2-amino-7-fluorobenzo[b]thiophene-3-carbonitrile] | < 500 |
| < 100 | < 5000 | < 100 | < 100 | < 100 | < 5000 | C[C@H](O)[C@H]1COc2c(Cl)c(-c3ccc(F)c4sc(N)c(C#N)c34)c(F)c3nc(OC[C@@]45CCCN4C[C@H](F)C5)nc(c23)N1CC(F)F [Compound 817, 2-amino-4-((5R)-8-chloro-4-(2,2-difluoroethyl)-10-fluoro-2-(((2R,7aS)-2-fluorotetrahydro-1H-pyrrolizin-7a(5H)-yl)methoxy)-5-((S)-1-hydroxyethyl)-5,6-dihydro-4H-[1,4]oxazepino[5,6,7-de]quinazolin-9-yl)-7-fluorobenzo[b]thiophene-3-carbonitrile] | < 500 |
| < 100 | < 5000 | < 100 | < 100 | < 100 | < 5000 | C=C[C@H]1COc2c(Cl)c(-c3ccc(F)c4sc(N)c(C#N)c34)c(F)c3nc(OC[C@@]45CCCN4C[C@H](F)C5)nc(c23)N1C1CCOC1 (stereo partly drawn) [Compound 726, 2-amino-4-((5S)-8-chloro-10-fluoro-2-(((2R,7aS)-2-fluorotetrahydro-1H-pyrrolizin-7a(5H)-yl)methoxy)-4-(tetrahydrofuran-3-yl)-5-vinyl-5,6-dihydro-4H-[1,4]oxazepino[5,6,7-de]quinazolin-9-yl)-7-fluorobenzo[b]thiophene-3-carbonitrile] | < 500 |
| < 100 | < 5000 | < 100 | < 100 | < 100 | < 5000 | N#Cc1c(N)sc2c(F)ccc(-c3c(Cl)c4c5c(nc(OC[C@@]67CCCN6C[C@H](F)C7)nc5c3F)N(C3CCOC3)CC(O)CO4)c12 (stereo partly drawn) [Compound 1225, 2-amino-4-(9-chloro-11-fluoro-2-(((2R,7aS)-2-fluorotetrahydro-1H-pyrrolizin-7a(5H)-yl)methoxy)-6-hydroxy-4-(tetrahydrofuran-3-yl)-4,5,6,7-tetrahydro-[1,5]oxazocino[4,3,2-de]quinazolin-10-yl)-7-fluorobenzo[b]thiophene-3-carbonitrile] | < 500 |
| < 100 | < 5000 | < 100 | < 100 | < 100 | < 5000 | N#Cc1c(N)sc2c(F)ccc(-c3c(Cl)c4c5c(nc(OC[C@@]67CCCN6C[C@H](F)C7)nc5c3F)N(CC(F)F)[C@@H](C(F)F)CO4)c12 [Compound 1057, 2-amino-4-((5R)-8-chloro-4-(2,2-difluoroethyl)-5-(difluoromethyl)-10-fluoro-2-(((2R,7aS)-2-fluorotetrahydro-1H-pyrrolizin-7a(5H)-yl)methoxy)-5,6-dihydro-4H-[1,4]oxazepino[5,6,7-de]quinazolin-9-yl)-7-fluorobenzo[b]thiophene-3-carbonitrile] | < 500 |
| < 100 | < 5000 | < 100 | < 100 | < 100 | < 5000 | N#Cc1c(N)sc2c(F)ccc(-c3c(Cl)c4c5c(nc(OC[C@@]67CCCN6C[C@H](F)C7)nc5c3F)N([C@H]3CCN(C(=O)C(F)F)C3)CCO4)c12 [Compound 940, 2-amino-4-(8-chloro-4-((S)-1-(2,2-difluoroacetyl)pyrrolidin-3-yl)-10-fluoro-2-(((2R,7aS)-2-fluorotetrahydro-1H-pyrrolizin-7a(5H)-yl)methoxy)-5,6-dihydro-4H-[1,4]oxazepino[5,6,7-de]quinazolin-9-yl)-7-fluorobenzo[b]thiophene-3-carbonitrile] | < 500 |
| < 100 | < 5000 | < 100 | < 100 | < 100 | < 5000 | N#Cc1c(N)sc2c(F)ccc(-c3c(Cl)c4c5c(nc(OC[C@@]67CCCN6C[C@H](F)C7)nc5c3F)N([C@H]3CCN(C=O)C3)CCO4)c12 [Compound 1095, 2-amino-4-(8-chloro-10-fluoro-2-(((2R,7aS)-2-fluorotetrahydro-1H-pyrrolizin-7a(5H)-yl)methoxy)-4-((S)-1-formylpyrrolidin-3-yl)-5,6-dihydro-4H-[1,4]oxazepino[5,6,7-de]quinazolin-9-yl)-7-fluorobenzo[b]thiophene-3-carbonitrile] | < 500 |

| Compound | IC50 (K-Ras G12S) [nM] | IC50 (SW620 cells) [nM] | IC50 (K-Ras G12D) [nM] | IC50 (K-Ras G12V) [nM] | IC50 (K-Ras WT) [nM] | IC50 (A549 cells) [nM] | IC50 (GP2D cells) [nM] |
| --- | --- | --- | --- | --- | --- | --- | --- |
| N#Cc1c(N)sc2c(F)ccc(-c3c(Cl)c4c5c(nc(OC[C@@]67CCCN6C[C@H](F)C7)nc5c3F)N(C3CC5CCC3N5C=O)CCO4)c12 (stereo partly drawn) [Compound 892, 2-amino-4-(8-chloro-10-fluoro-2-(((2R,7aS)-2-fluorotetrahydro-1H-pyrrolizin-7a(5H)-yl)methoxy)-4-(7-formyl-7-azabicyclo[2.2.1]heptan-2-yl)-5,6-dihydro-4H-[1,4]oxazepino[5,6,7-de]quinazolin-9-yl)-7-fluorobenzo[b]thiophene-3-carbonitrile] | < 100 | < 5000 | < 100 | < 100 | < 100 | < 5000 | < 500 |
